Structures can show the parent of a compound that is named as a salt.
Legend:
[1] = cited from earlier work; for SOLUBILITY (parts H2O): Table 1, numeric; for SOL. IN PARTS H2O: Table 2; for SOLUBILITY (in words): Table 1, water
[2] = tested on: antisera to synthetic hTGF-a (1-50); test: RIA for human TGF-a using antisera recognizing the complete, bioactive synthetic hormone; format: binding, rabbit
Procedure: (D) RIA for Human TGF-a Using Antisera Recognizing the Complete, Bioactive Synthetic Hormone Synthesis of hTGF-a (1-50) Peptide and Immunization:
The sequence of human TGF-a as determined by DeRynck et al. (Cell 38:287-297, 1985) was used to synthesize the low molecular weight form of the hormone (residues 1-50) using an automated instrument (Biosearch). The resultant peptide was used to immunize rabbits repeatedly using 0.5 mg of peptide at multiple sites.
The assay used reference standards and radio-iodinated tracer prepared from purified, bioactive synthetic rat TGF-alpha (Peninsula Laboratories, Belmont, Calif.). Label cocktail was prepared by mixing, in 1.5 L total volume, 300 L 10×buffer (0.5 M Hepes, 2 mg/L BSA, 0.2% sodium azide), 600 L 10% nonidet P-40 (Shell Oil Co.), 580 L distilled water, and 30 L of labeled peptide (rTGF-a, 800,000 CPM). The antibody suspension was prepared essentially as described in (A) above. To each 0.4 L tube containg 0.25-0.3 L cushions of butyl phthalate was added 25 L of label cocktail, 50 L of sample, and 25 L of antibody suspension. Where indicated, 10 L of 1M DTT (freshly dissolved in 0.5M sodium bicarbonate) was added to each assay mixture. After mixing, the tubes were incubated overnight at 4° C., then processed as described in (A) except that the detection instrument was a gamma counter (Abbott Model 200).

anti-digoxin antibody = test: Enzyme immunoassay for digoxin; format: binding, rabbit
From the text: An enzyme-labelled digoxin assay using the method of the present invention is adapted from a commercial digoxin kit (Immunotech, Allston, Mass.). The only changes in reagents are the inclusion of 20% sorbitol in the color developer solution, and the substitution of 50 microliters of Tachisorb-R (Behring Diagnostics, La Jolla, Calif.) for the 500 microliters of precipitating solution (goat-anti rabbit IgG) provided with the kit.
In two mL, screw-top microcentrifuge tubes (Sarstedt, Princeton, N.J.), 1 mL of sorbitol-color developer is dispensed, then overlaid with 0.4 mL of dibutyl phthalate. A 200 microliter assay mixture is prepared by adding 100 microliters of Tachisorb-R, 25 microliters of digoxin-enzyme (alkaline phosphatase) conjugate, 25 microliters of sample (serum-based standards), and 50 microliters of antibody solution. The assay is incubated at room temperature for 15 minutes, centrifuged two minutes at 10,000×g, and further incubated one hour for color development.
Color is measured at 400 nm in a Shimadzu Model UV-160 spectrophotometer. Because of the opacity of the polypropylene tubes, results for each tube are corrected for nonspecific absorbance at 500 nm.

[3] = tested on: anti-fragment antisera (rat TGF-a c-terminal peptide); test: TGF-a RIA: bioactive peptides & methyl cinnamate cushions; format: binding, rabbit
Procedure: (§1) All assays employed as assay vessels 0.4 L microcentrifuge tubes containing 0.25-0.3 L of cushion material. Labeled peptide was produced by chloramine Tiodination (specific activity ranged from 200-500 Ci/g). Unless otherwise specified, all solid phases were prepared using S. aureus suspensions. Centrifugations were for 30-60 seconds in a microcentrifuge at approximately 10,000×g.
(§2) (B) RIA Using Anti-Fragment Antisera and Bioactive Syntheticpeptide as Tracer and Reference Standard, with Methylcinnamate Cushions and Assay Reactants Predispensed.
(§3) Trans-methyl cinnamate (Table 1, item 11, Aldrich Chemical Co., St. Louis, Mo.) was melted by brief heating in a microwave oven just prior to dispensing into assay vessels. The cushion solidified spontaneously at room temperature. The solid phase was prepared as in (A) above in double strength assay buffer (including 4% NP-40 nonionic detergent). This suspension was stable at 4° C. for at least one year. Label cocktail (1.5 L) was prepared using 0.3 L 10×assay buffer (minus nonionic detergent), 0.6 L 10% NP-40, 0.58 L distilled water, and 30 L label concentrate (600,000 CPM) prepared from bioactive synthetic rat TGF-alpha (res. 1-50).
(§4) Into each assay was loaded 50 L of reference standard sample (bioactive, synthetic rat TGF-alpha, res. 1-50), 25 L of label cocktail, followed by 25 L of solid phase suspension. Where indicated, all assay reactants were predispensed and equilibrated for at least 3 days at 4 C prior to initiation of the assay by sample addition and mixing. After the indicated incubation periods, assay vessels were centrifuged and counted using radiation shields (FIG. 3, lacking disk 52) in an gamma counter (Abbott Model 200).
Two temperature and mixing treatments were compared with four incubation times. One treatment consisted of incubating at 32° C., just below the melting temperature of the cushion, and mixing at 15 minute intervals. The second treatment consisted of incubating at 40° C., above the melting temperature of the cushion, with mixing only at initiation of incubation (prior to warming). Both assays yielded low nonspecific binding, high specific binding, and high competition with reference standards, even after only 30 minutes of incubation.

[4] = tested on: anti-fragment antisera (rat TGF-a c-terminal peptide); test: TGF-a RIA: predispensed reactants & methyl cinnamate cushions; format: binding, rabbit
Procedure: as §1, §2, §3, §4

[5] = REDUCED WITH DTT, 1.25 nM in assay

CC(O)CO (stereo not drawn) [PROPYLENE GLYCOL]
miscibility ([1]; Table 2 comment): MISC WITH H2O, CHCL3

COC(=O)c1ccccc1C(=O)OC [DIMETHYL PHTHALATE]
SOLUBILITY (parts H2O) [1]: 232 parts H2O

[Cl-].[Li+] [LITHIUM CHLORIDE]
SOL. IN PARTS H2O [1]: 1.3 PARTS H2O

COC(=O)C(=O)OC [DIMETHYL OXALATE]
SOLUBILITY (parts H2O) [1]: 17 parts H2O

CCCCOC(=O)c1ccccc1C(=O)OCCCC [DIBUTYL PHTHALATE]
SOLUBILITY (parts H2O) [1]: 2500 parts H2O

COC(=O)c1ccccc1O [METHYL SALICYLATE]
SOLUBILITY (parts H2O) [1]: 1500 parts H2O

COC(=O)/C=C/c1ccccc1 [METHYL CINNAMATE]
SOLUBILITY (in words) [1]: ALMOST INSOL

CCOC(=O)CC(=O)C(=O)OCC [ETHYL OXALACETATE]
SOLUBILITY (in words) [1]: INSOL

CCCCOC(=O)CC(O)(CC(=O)OCCCC)C(=O)OCCCC [BUTYL CITRATE]
SOLUBILITY (in words) [1]: INSOL

COC(=O)c1ccco1 [METHYL FUROATE]
SOLUBILITY (in words) [1]: SLIGHTLY

[Br-].[Li+] [LITHIUM BROMIDE]
SOL. IN PARTS H2O [1]: .6 PARTS H2O

RTGF, BIOACTIVE: purified, bioactive synthetic rat TGF-alpha (Peninsula Laboratories)
PERCENTAGE OF MAXIMAL BINDING, corrected for nonspecific binding ([2]; REDUCED WITH DTT, 0.15 nM in assay): 93.8%
PERCENTAGE OF MAXIMAL BINDING, corrected for nonspecific binding ([2]; REDUCED WITH DTT, 0.32 nM in assay): 87.1%
PERCENTAGE OF MAXIMAL BINDING, corrected for nonspecific binding ([2]; REDUCED WITH DTT, 0.62 nM in assay): 79.9%
PERCENTAGE OF MAXIMAL BINDING, corrected for nonspecific binding [2, 5]: 74.4%
PERCENTAGE OF MAXIMAL BINDING, corrected for nonspecific binding ([2]; REDUCED WITH DTT, 2.50 nM in assay): 64.9%
PERCENTAGE OF MAXIMAL BINDING, corrected for nonspecific binding ([2]; REDUCED WITH DTT, 5.00 nM in assay): 47.3%
PERCENTAGE OF MAXIMAL BINDING, corrected for nonspecific binding ([2]; UNREDUCED, 0.15 nM in assay): 83.2%
PERCENTAGE OF MAXIMAL BINDING, corrected for nonspecific binding ([2]; UNREDUCED, 0.32 nM in assay): 77.3%
PERCENTAGE OF MAXIMAL BINDING, corrected for nonspecific binding ([2]; UNREDUCED, 0.62 nM in assay): 68.5%
PERCENTAGE OF MAXIMAL BINDING, corrected for nonspecific binding ([2]; UNREDUCED, 1.25 nM in assay): 58.5%
PERCENTAGE OF MAXIMAL BINDING, corrected for nonspecific binding ([2]; UNREDUCED, 2.50 nM in assay): 54.0%
PERCENTAGE OF MAXIMAL BINDING, corrected for nonspecific binding ([2]; UNREDUCED, 5.00 nM in assay): 45.7%

CCOC(=O)c1ccccc1O [ETHYL SALICYLATE]
SOLUBILITY (in words) [1]: SLIGHTLY

C[C@H]1O[C@@H](O[C@H]2[C@@H](O)C[C@H](O[C@H]3[C@@H](O)C[C@H](O[C@H]4CC[C@@]5(C)[C@H](CC[C@@H]6[C@@H]5C[C@@H](O)[C@]5(C)[C@@H](C7=CC(=O)OC7)CC[C@]65O)C4)O[C@@H]3C)O[C@@H]2C)C[C@H](O)[C@@H]1O [digoxin]
ABSORBANCE AT 400 nm (corrected) (anti-digoxin antibody; sample 1.0): 150
ABSORBANCE AT 400 nm (corrected) (anti-digoxin antibody; sample 2.0): 100
ABSORBANCE AT 400 nm (corrected) (anti-digoxin antibody; sample 4.0): 80

CCCCOC(=O)C=Cc1ccccc1 [BUTYL CINNAMATE]
SOLUBILITY (parts H2O) [1]: 200 parts H2O

BIOLOGICAL TGFALPHA: BIOLOGICAL TGFALPHA, PARTIALLY PURIFIED FROM CULTURE FLUIDS (A375 CELLS)
PERCENTAGE OF MAXIMAL BINDING, corrected for nonspecific binding [2, 5]: 63.3%
PERCENTAGE OF MAXIMAL BINDING, corrected for nonspecific binding ([2]; UNREDUCED, 1.25 nM in assay): 89.7%

CCOC(=O)CC(C)=O [ETHYL ACETOACETATE]
SOLUBILITY (parts H2O) [1]: 35 parts H2O

COC(=O)c1ccccc1 [METHYL BENZOATE]
SOLUBILITY (in words) [1]: INSOL

synthetic rat TGF-alpha: bioactive, synthetic rat TGF-alpha, res. 1-50
% bound with 0.3 nM sample ([3]; 30 minutes, 32 C): 21.9%
% bound with 10 nM sample ([3]; 30 minutes, 32 C): 5.6%
% bound with 0.3 nM sample ([3]; 30 minutes, 40 C): 23.8%
% bound with 10 nM sample ([3]; 30 minutes, 40 C): 6.9%
% bound with 0.3 nM sample ([3]; 60 minutes, 32 C): 25.2%
% bound with 10 nM sample ([3]; 60 minutes, 32 C): 6.2%
% bound with 0.3 nM sample ([3]; 60 minutes, 40 C): 29.4%
% bound with 10 nM sample ([3]; 60 minutes, 40 C): 7.1%
% bound with 0.3 nM sample ([3]; 90 minutes, 32 C): 26.2%
% bound with 10 nM sample ([3]; 90 minutes, 32 C): 6.4%
% bound with 0.3 nM sample ([3]; 90 minutes, 40 C): 32.9%
% bound with 10 nM sample ([3]; 90 minutes, 40 C): 7.6%
% bound with 0.3 nM sample ([3]; 120 minutes, 32 C): 25.6%
% bound with 10 nM sample ([3]; 120 minutes, 32 C): 6.1%
% bound with 0.3 nM sample ([3]; 120 minutes, 40 C): 35.8%
% bound with 10 nM sample ([3]; 120 minutes, 40 C): 7.6%
label bound, CPM ([4]; 2.5 nM sample competition, total CPM = 7872): 642 CPM
% OF MAX. BOUND ([4]; 2.5 nM sample, 120 minutes, 37 C): 48.6%
LABEL BOUND ([4]; 2.5 nM sample, 120 minutes, 37 C, N = 6): 8.2%

CCOC(=O)CC(=O)c1ccccc1 [ETHYL BENZOYLACETATE]
SOLUBILITY (in words) [1]: INSOL

COC(=O)CCC(=O)OC [DIMETHYL SUCCINATE]
SOLUBILITY (parts H2O) [1]: 120 parts H2O

CCOC(=O)C=Cc1ccccc1 [ETHYL CINNAMATE]
SOLUBILITY (in words) [1]: INSOL

CCOC(=O)[C@H](O)[C@@H](O)C(=O)OCC [DIETHYL L-TARTRATE]
SOLUBILITY (in words) [1]: slightly

CCOC(=O)CC(=O)OCC [DIETHYL MALONATE]
SOLUBILITY (parts H2O) [1]: 50 parts H2O

CCOC(=O)/C=C\C(=O)OCC [DIETHYL MALEATE]
SOLUBILITY (in words) [1]: INSOL

Source: patent US6121055A, “Methods and devices for conducting specific binding assays” (priority 1995, dated 2000)
